Results taken from US7432283B2, “Heterocyclic GABAA subtype selective receptor modulators” (Roche Palo Alto LLC, priority 2004, dated 2008).

With CCCC(c1cccs1)c1c2c(nn1C)N(c1c(C)cc(C)cc1C)CCC2 (stereo not shown) [Compound 4-3, 2-Methyl-3-(1-thiophen-2-ylbutyl)-7-(2,4,6-trimethylphenyl)-4,5,6,7-tetrahydro-2H-pyrazolo[3,4-b]pyridine] the melting point was 87.6 to 90.3 °C. CCCC(CCC)c1c2c(nn1C)N(c1c(C)cc(C)cc1C)CCCC2 [Compound 4-4, 2-Methyl-3-(1-propylbutyl)-8-(2,4,6-trimethylphenyl)-2,4,5,6,7,8-hexahydro-1,2,8-triazaazulene] gave a melting point of 96 to 98.1 °C. Work on CCc1c2c(nn1C)N(c1c(C)cc(C)cc1C)CCC2 [Compound 4-5, 3-Ethyl-2-methyl-7-(2,4,6-trimethyl-phenyl)-4,5,6,7-tetrahydro-2H-pyrazolo[3,4-b]pyridine] yielded a melting point of 79.7 to 81.4 °C. In the case of Cc1cc(C)c(N2CCCc3c2nn(C)c3C(C)C)c(C)c1 [Compound 4-7, 3-Isopropyl-2-methyl-7-(2,4,6-trimethyl-phenyl)-4,5,6,7-tetrahydro-2H-pyrazolo[3,4-b]pyridine], the melting point is reported as 105.9 to 108.9 °C. Cc1cc(C)c(N2CCCc3c2nn(C)c3C(=O)O)c(Cl)c1 [Compound 5-1, 7-(2-Chloro-4,6-dimethylphenyl)-2-methyl-4,5,6,7-tetrahydro-2H-pyrazolo[3,4-b]pyridine-3-carboxylic acid] showed a melting point of 247.8 to 248.3 °C. With Cc1cc(C)c(N2CCCc3c2nn(C)c3C(=O)O)c(C)c1 [Compound 5-2, 7-(2,4,6-Trimethylphenyl)-2-methyl-4,5,6,7-tetrahydro-2H-pyrazolo[3,4-b]pyridine-3-carboxylic acid] the melting point was 228.6 to 233.9 °C. For Cc1cc(C)c(N2CCCc3c2nn(C)c3NC(=O)OC(C)(C)C)c(Cl)c1 [Compound 5-3, [7-(2-Chloro-4,6-dimethylphenyl)-2-methyl-4,5,6,7-tetrahydro-2H-pyrazolo[3,4-b]pyridin-3-yl]carbamic acid tert-butyl ester], the melting point was 171.4 to 175.7 °C. In the case of CCOC(=O)Nc1c2c(nn1C)N(c1c(C)cc(C)cc1Cl)CCC2 [Compound 5-4, [7-(2-Chloro-4,6-dimethylphenyl)-2-methyl-4,5,6,7-tetrahydro-2H-pyrazolo[3,4-b]pyridin-3-yl]carbamic acid ethyl ester], the melting point is reported as 204 to 207.8 °C. Compound CCCN(CCC)c1c2c(nn1C)N(c1c(C)cc(C)cc1Cl)CCC2 [Compound 5-5, [7-(2-Chloro-4,6-dimethylphenyl)-2-methyl-4,5,6,7-tetrahydro-2H-pyrazolo[3,4-b]pyridin-3-yl]dipropylamine] has a melting point of 90 to 91 °C. For CCCN(CCC)c1c2c(nn1C)N(c1c(C)cc(C)cc1C)CCC2 [Compound 5-35, [2-Methyl-7-(2,4,6-trimethylphenyl)-4,5,6,7-tetrahydro-2H-pyrazolo[3,4-b]pyridin-3-yl]-dipropylamine], the melting point was 88.9 to 91.5 °C. In the case of CCC(CC)Nc1c2c(nn1C)N(c1c(C)cc(C)cc1C)CCC2 [Compound 5-36, (1-Ethylpropyl)-[2-methyl-7-(2,4,6-trimethyl-phenyl)-4,5,6,7-tetrahydro-2H-pyrazolo[3,4-b]pyridin-3-yl]-amine], the melting point is reported as 99.3 to 104.9 °C. Work on CCC(COC)Nc1c2c(nn1C)N(c1c(C)cc(C)cc1C)CCC2 (stereo not shown) [Compound 5-40, (1-Methoxymethylpropyl)-[2-methyl-7-(2,4,6-trimethylphenyl)-4,5,6,7-tetrahydro-2H-pyrazolo[3,4-b]pyridin-3-yl]-amine] yielded a melting point of 96.5 to 102.5 °C. With CCCC(COC)Nc1c2c(nn1C)N(c1c(C)cc(C)cc1C)CCC2 (stereo not shown) [Compound 5-41, (1-Methoxymethylbutyl)-[2-methyl-7-(2,4,6-trimethylphenyl)-4,5,6,7-tetrahydro-2H-pyrazolo[3,4-b]pyridin-3-yl]-amine] the melting point was 100.1 to 104.4 °C. Compound Cn1nc2c(c1N)CCCN2c1ccc(Cl)cc1Cl [Compound 5-43, 7-(2,4-Dichloro-phenyl)-2-methyl-4,5,6,7-tetrahydro-2H-pyrazolo[3,4-b]pyridin-3-ylamine] has a melting point of 176.9 to 178.9 °C. With Cc1cc(C)c(N2CCCc3c2nn(C)c3N)c(Cl)c1 [Compound 5-45, 7-(2-Chloro-4,6-dimethyl-phenyl)-2-methyl-4,5,6,7-tetrahydro-2H-pyrazolo[3,4-b]pyridin-3-ylamine] the melting point was 234 to 236 °C. For CCCN(CCCC#N)c1c2c(nn1C)N(c1c(C)cc(C)cc1C)CCC2 [Compound 5-48, 4-{[2-Methyl-7-(2,4,6-trimethyl-phenyl)-4,5,6,7-tetrahydro-2H-pyrazolo [3,4-b]pyridin-3-yl]-propyl-amino}-butyronitrile], the melting point was 108.3 to 111 °C. Compound CNc1c2c(nn1C)N(c1c(C)cc(C)cc1C)CCC2 [Compound 5-49, Methyl-[2-methyl-7-(2,4,6-trimethyl-phenyl)-4,5,6,7-tetrahydro-2H-pyrazolo[3,4-b]pyridin-3-yl]-amine] has a melting point of 143.3 to 144.9 °C. For Cc1cc(C)c(N2CCCc3c2nn(C)c3N)c(C)c1 [Compound 5-52, 2-methyl-7-(2,4,6-trimethyl-phenyl)-4,5,6,7-tetrahydro-2H-pyrazolo[3,4-b]pyridin-3-ylamine], the melting point was 208.8 to 210.9 °C. For Cn1nc2c(c1C(=O)c1ccccn1)CCCN2c1ccc(Cl)cc1Cl [Compound 6-1, [7-(2,4-Dichloro-phenyl)-2-methyl-4,5,6,7-tetrahydro-2H-pyrazolo[3,4-b]pyridin-2-yl]-methanone], the melting point was 142.1 to 149.2 °C. Work on CO/N=C(\C)c1c2c(nn1C)N(c1c(C)cc(C)cc1C)CCC2 [Compound 6-4, 1-[2-Methyl-7-(2,4,6-trimethyl-phenyl)-4,5,6,7-tetrahydro-2H-pyrazolo[3,4-b]pyridin-3-yl]-ethanone O-methyl-oxime] yielded a melting point of 104.2 to 106.4 °C. Work on CO/N=C/c1c2c(nn1C)N(c1c(C)cc(C)cc1C)CCC2 [Compound 6-5, 2-Methyl-7-(2,4,6-trimethyl-phenyl)-4,5,6,7-tetrahydro-2H-pyrazolo[3,4-b] pyridine-3-carbaldehyde O-methyl-oxime] yielded a melting point of 89 to 90.1 °C. With CCCN(CC1CC1)C(=O)c1c2c(nn1C)N(c1c(C)cc(C)cc1Cl)CCC2 [Compound 7-1, 7-(2-Chloro-4,6-dimethylphenyl)-2-methyl-4,5,6,7-tetrahydro-2H-pyrazolo[3,4-b]pyridine-3-carboxylic acidcyclopropylmethylpropyl amide] the melting point was 120.6 to 122 °C. Cc1cc(C)c(N2CCCc3c2nn(C)c3C(=O)N2CCc3ccccc3C2)c(C)c1 [Compound 7-2, (3,4-Dihydro-1H-isoquinolin-2-yl)-[2-methyl-7-(2,4,6-trimethyl-phenyl)-4,5,6,7-tetrahydro-2H-pyrazolo[3,4-b]pyridin-3-yl]-methanone] showed a melting point of 80.3 to 87.7 °C. In the case of CCC(=O)Nc1c2c(nn1C)N(c1c(C)cc(C)cc1C)CCC2 [Compound 7-3, N-[2-Methyl-7-(2,4,6-trimethylphenyl)-4,5,6,7-tetrahydro-2H-pyrazolo[3,4-b]pyridin-3-yl]propionamide], the melting point is reported as 226 to 228 °C. COCC(=O)Nc1c2c(nn1C)N(c1c(C)cc(C)cc1C)CCC2 [Compound 7-4, 2-Methoxy-N-[2-methyl-7-(2,4,6-trimethyl-phenyl)-4,5,6,7-tetrahydro-2H-pyrazolo[3,4-b]pyridin-3-yl]acetamide] showed a melting point of 133.8 to 135 °C.
